What was measured:
[1] = in vivo; cited from earlier work
[2] = Biodistribution of isomers and racemic mixture of labeled 3-methylheptadecanoic acid in rats; type: in vivo; settings: rat
Experimental: The following data compare the biodistribution of 1-[^11C]-3(S)-methylheptadecanoic acid (the ‘S’ isomer) and I-[^11C]-3(R)-methylheptadecanoic acid (the ‘R’ isomer). Also compared is the racemic mixture, 1-[^14C]-3(R,S)-methylheptadecanoic acid, labeled with ^14C. […] Biodistribution was performed in six rats for each compound and time point. The 5-minute distribution data are contained in Table 5, while the 30-minute data are contained in Table 6. These unexpected results imply that during β-oxidation, enoyl-CoA hydratase is stereo-specific and only recognizes the ‘S’ isomer. Further, stereoisomeric purity is important for targeting the MFA to heart tissue.

[3] = cited from earlier work
[4] = Biodistribution of [^18F]-FCPHA in rats (organs excised, gamma counter); type: in vivo, Sprague-Dawley rats
[5] = PET heart imaging in monkey after intravenous [^18F]-FCPHA; type: in vivo
Experimental: (§1) In FIG. 6, the images are a comparison of [^13N]ammonia (right) and [^18F]FCPHA (left) at 2-8 minutes in a pig.
(§2) The biodistribution of [^18F]-FCPHA was also studied in monkeys.

[6] = Heart imaging in pig after intravenous [^18F]FCPHA; type: in vivo
Experimental: as §1, §2

[7] = Biodistribution of [^18F]-FCPHA in rats (organs excised, gamma counter); type: in vivo, Sprague-Dawley rats; settings: rat
Experimental: Male Sprague-Dawley rats weighing approximately 300-350 grams, were injected without anesthesia with 40 µCi of [^18F]-FCPHA in a total volume of 200 µl. The radiolabeled FA was injected into the tail vein and the rats subsequently sacrificed at 5 minutes and 60 minutes post-injection. The organs were excised and counted in a gamma counter. Accumulation of the FA in various organs in % DPG (dose per gram) is detailed in Table 1.
Bone accumulation of the fluorinated FA measured de-fluorination of the compound and its subsequent accumulation. To confirm imaging resolution, the following ratios were determined at 5 and 60 minutes post-injection (Table 2).

[8] = normal myocardium, biexponential clearance

## CC(CCCCCCCCCCCCc1ccc(I)cc1)CC(=O)O (racemic) [BMIPP, 15-(p-iodophenyl)-3-(R,S)-methyl-pentadecanoic acid]
[1]
  Myocardial retention: 30 to 45 min

## CCCCCCCCCCCCCCC(C)C[14C](=O)O (racemic) [R,S racemic mixture, 1-[^14C]-3(R,S)-methylheptadecanoic acid]
[2]; 5 minutes post-injection
  Biodistribution, Blood: 0.23 ± 0.02 % DPE
  Biodistribution, Heart: 2.20 ± 0.95 % DPE
  Biodistribution, Left Ventricle: 2.87 ± 1.01 % DPE
  Biodistribution, Right Ventricle: 2.05 ± 0.54 % DPE
  Heart-to-blood: 9.56
  Left ventricle-to-blood: 12.48
  Right ventricle-to-blood: 8.90
[2]; 30 minutes post-injection
  Biodistribution, Blood: 0.20 ± 0.02 % DPE
  Biodistribution, Heart: 2.10 ± 0.41 % DPE
  Biodistribution, Left Ventricle: 2.81 ± 0.35 % DPE
  Biodistribution, Right Ventricle: 2.10 ± 0.41 % DPE
  Heart-to-blood: 10.10
  Left ventricle-to-blood: 12.48
  Right ventricle-to-blood: 10.05

## CCCCCCCCCCCCCC[C@H](C)C[11C](=O)O (single isomer, unassigned; isomer 1) [S-isomer]
[2]; 5 minutes post-injection
  Biodistribution, Blood: 0.18 ± 0.01 % DPE
  Biodistribution, Heart: 3.44 ± 0.54 % DPE
  Biodistribution, Left Ventricle: 4.05 ± 0.77 % DPE
  Biodistribution, Right Ventricle: 3.40 ± 0.82 % DPE
  Heart-to-blood: 19.00
  Left ventricle-to-blood: 22.00
  Right ventricle-to-blood: 18.88
[2]; 30 minutes post-injection
  Biodistribution, Blood: 0.21 ± 0.04 % DPE
  Biodistribution, Heart: 3.08 ± 0.30 % DPE
  Biodistribution, Left Ventricle: 3.81 ± 0.37 % DPE
  Biodistribution, Right Ventricle: 2.82 ± 0.46 % DPE
  Heart-to-blood: 14.66
  Left ventricle-to-blood: 18.14
  Right ventricle-to-blood: 18.88

## CCCCCCCCCCCCCC[C@@H](C)C[11C](=O)O (single isomer, unassigned; isomer i) [R-isomer]
[2]; 5 minutes post-injection
  Biodistribution, Blood: 0.30 ± 0.04 % DPE
  Biodistribution, Heart: 1.40 ± 0.23 % DPE
  Biodistribution, Left Ventricle: 1.50 ± 0.50 % DPE
  Biodistribution, Right Ventricle: 0.94 ± 0.46 % DPE
  Heart-to-blood: 4.66
  Left ventricle-to-blood: 5.00
  Right ventricle-to-blood: 3.13
[2]; 30 minutes post-injection
  Biodistribution, Blood: 0.23 ± 0.03 % DPE
  Biodistribution, Heart: 1.07 ± 0.16 % DPE
  Biodistribution, Left Ventricle: 1.33 ± 0.25 % DPE
  Biodistribution, Right Ventricle: 0.93 ± 0.35 % DPE
  Heart-to-blood: 5.95
  Left ventricle-to-blood: 5.78
  Right ventricle-to-blood: 4.00

## CC(C)(CCCCCCCCCCCCc1ccc(I)cc1)CC(=O)O [DMIPP]
[1]
  Myocardial clearance: 6 to 7 h

## O=C(O)CCCCCCCCCCCCCCc1ccc(I)cc1 [IPPA, 15-(p-iodophenyl)pentadecanoic acid]
[3]; in vivo
  Blood clearance t½ (elimination): 5 min
[3]; [8]
  Myocardial clearance, fast component t½ (flow): 3.5 min
  Myocardial clearance, slow component t½ (metabolism): 130 min

## CCCCCCCCC([18F])CCCCC1CC1CC(=O)O (stereo not drawn) [[^18F]-FCPHA, [^18F]-9-fluoro-3,4-cyclopropyl-heptadecanoic acid]
[4]
  Subcellular distribution in the rat heart: found in the mitochondria
[5]; monkey
  Blood activity clearance: fast clearance
[5]; monkey heart, after injection (FIG. 3)
  Heart activity as a function of time: initial spike of activity corresponding to blood flow followed by a plateau after 10 minutes
[5]; monkey, sixty minutes after intravenous injection of 5 mCi
  Myocardial trapping visualized by PET: myocardial trapping in both left and right ventricles
[6]; late images at 60 minutes
  Myocardial activity retention in late images: high myocardial activity retention
[6]; pig
  Blood activity clearance: fast clearance
[6]; pig heart, after injection
  Heart activity as a function of time: initial spike of activity corresponding to blood flow followed by a plateau after 10 minutes
[7]; 5 min post-injection
  Accumulation in Adrenal: 0.22 ± 0.061 % DPG
  Accumulation in Blood: 0.064 ± 0.008 % DPG
  Accumulation in Bone: 0.16 ± 0.03 % DPG
  Accumulation in Brain: 0.06 ± 0.01 % DPG
  Accumulation in Gastrointestinal Tract: 0.19 ± 0.040 % DPG
  Accumulation in Kidney: 0.41 ± 0.097 % DPG
  Accumulation in Liver: 1.34 ± 0.26 % DPG
  Accumulation in Lung: 0.47 ± 0.12 % DPG
  Accumulation in Muscle: 0.25 ± 0.009 % DPG
  Accumulation in Spleen: 0.55 ± 0.30 % DPG
  Accumulation in Stomach: 0.12 ± 0.067 % DPG
  Accumulation in Testes: 0.020 ± 0.003 % DPG
[7]; 5 min post-injection, tail vein
  Accumulation in Heart: 1.55 ± 0.66 % DPG
[7]; 60 min post-injection
  Accumulation in Adrenal: 0.30 ± 0.16 5 DPG
  Accumulation in Blood: 0.080 ± 0.019 5 DPG
  Accumulation in Bone: 0.70 ± 0.39 5 DPG
  Accumulation in Brain: 0.05 ± 0.02 5 DPG
  Accumulation in Gastrointestinal Tract: 0.24 ± 0.039 5 DPG
  Accumulation in Heart: 1.43 ± 0.14 5 DPG
  Accumulation in Kidney: 0.34 ± 0.08 5 DPG
  Accumulation in Liver: 0.87 ± 0.15 5 DPG
  Accumulation in Lung: 0.33 ± 0.16 5 DPG
  Accumulation in Muscle: 0.097 ± 0.075 5 DPG
  Accumulation in Spleen: 0.34 ± 0.085 5 DPG
  Accumulation in Stomach: 0.15 ± 0.038 5 DPG
  Accumulation in Testes: 0.011 ± 0.004 5 DPG
[7]; at 5 minutes post-injection
  Heart-to-blood ratio: 25.8
  Heart-to-lung ratio: 3.3
[7]; at 60 minutes post-injection
  Heart-to-blood ratio: 20.4
  Heart-to-lung ratio: 4.6
